Measured values reported in PMC9101642 (Molecules, 2022).
Marks after values point to notes of the source that are not given here.

Assays:
[1] = Plasma protein binding determination; format: in vitro ADME, rat; details: rat plasma, 37 °C, read-out: Rat PPB (%free)
Procedure, shortened: (§1)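 Mammary tumours induced in rats by MNU 50 mg/kg i.p. at day 50; after two weeks, compounds given orally at 5 or 50 mg/kg once daily for six weeks. Serum AST, ALT (340 nm), ALP (405 nm) and bilirubin measured; liver homogenate GSH, CAT, MDA by colorimetry; plasma binding by ultrafiltration at 37°C with BCA protein read-out.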

[2] = tested on: p53 promoter activity (p21 promoter); assay: qChIP of ERα-p53 interaction on the p21 promoter in MCF-7; format: cell-based, human
MCF-7 cells = assay: Cell cycle distribution by flow cytometry; format: cell-based, human; details: 24 h
ERα [3] = biological target: T1, ERα (Homo sapiens, UniProt P03372); assay: ERα down-regulation immunofluorescence assay in MCF-7; format: cell-based; details: ERα downregulation measured in MCF-7; read-out: MCF-7 DR (IC50 nM)
T1 sequence (P03372 1-595): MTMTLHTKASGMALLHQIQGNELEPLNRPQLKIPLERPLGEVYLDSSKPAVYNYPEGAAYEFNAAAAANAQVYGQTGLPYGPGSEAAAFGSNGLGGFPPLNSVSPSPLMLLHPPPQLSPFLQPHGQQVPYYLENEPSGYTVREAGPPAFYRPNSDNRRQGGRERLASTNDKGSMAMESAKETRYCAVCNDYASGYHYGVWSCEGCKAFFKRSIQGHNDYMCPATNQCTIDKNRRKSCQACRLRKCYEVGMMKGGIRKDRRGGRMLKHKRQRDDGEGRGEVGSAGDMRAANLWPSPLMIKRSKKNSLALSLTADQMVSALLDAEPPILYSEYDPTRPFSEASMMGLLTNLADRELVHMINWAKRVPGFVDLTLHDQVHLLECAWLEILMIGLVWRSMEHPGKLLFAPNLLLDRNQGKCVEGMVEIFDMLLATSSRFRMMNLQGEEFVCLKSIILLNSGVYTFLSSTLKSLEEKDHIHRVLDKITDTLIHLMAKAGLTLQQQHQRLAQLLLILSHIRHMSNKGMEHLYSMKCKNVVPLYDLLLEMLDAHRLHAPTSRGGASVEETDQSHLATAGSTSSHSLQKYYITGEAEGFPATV

[4] = Pharmacokinetics study, oral bioavailability; details: rat
[5] = tested on: progesterone receptor (PR); assay: ERα functional antagonism cell assay (PR as biomarker) in MCF-7; format: cell-based; details: Homo sapiens, MCF7; progesterone receptor as biomarker for ERα antagonism in MCF-7
ERβ = ERβ (Homo sapiens, UniProt Q92731); assay: Fluorescence polarization competition assay: antagonistic potency and relative binding affinity; details: for Ki: calculated antagonistic (inhibitory) constant, read-out: Ka ERβ; for IC50: concentration that antagonizes 50% of ERβ signaling activity, read-out: ERβ (IC50 nM); for logRBA ERβ: log of % relative binding affinity, estradiol = 100%
MDA-MB-231 cell lines = assay: MTT antiproliferative assay; format: cell-based, human; details: Homo sapiens, MDA-MB-231; growth inhibition, 48 h; read-out: MDA-MB-231 (IC50 nM)
[6] = Lipophilicity by shake-flask method; details: pH 7.4
MCF-7 cell lines = assay: MTT antiproliferative assay; format: cell-based, human; details: for IC50: Homo sapiens, MCF7, growth inhibition, 48 h, read-out: MCF-7 (IC50 nM); for MCF-7 antiproliferative potency, fold higher than Ral: ratio of IC50 values; for SI: selectivity index [IC50(MDA-MB-231)]/[IC50(MCF-7)]
[7] = tested on: MNU-induced breast cancer; assay: In vivo anticancer screening, MNU-induced mammary tumorigenesis; design: species or system female Wistar rats
[8] = rat, in vivo
[9] = Liver oxidative stress markers after treatment of MNU-induced rats; format: in vivo, Wistar rats; details: liver; for CAT: catalase activity; for GSH: reduced glutathione; for SOD (U/mg): superoxide dismutase activity; for TP: total protein content
Procedure, shortened: as §1

ERα [10] = biological target: T1, ERα; assay: Fluorescence polarization competition assay: antagonistic potency and relative binding affinity; details: for Ki: calculated antagonistic (inhibitory) constant, read-out: Ka ERα; for IC50: concentration that antagonizes 50% of ERα signaling activity, read-out: ERα (IC50 nM); for logRBA ERα: log of % relative binding affinity, estradiol = 100%; for ERα potency, fold higher than Ral: ratio of IC50 values
[11] = dose 50 mg/kg (compounds per os after MNU; MNU alone i.p.)

Chain of ERβ (Q92731 whole entry): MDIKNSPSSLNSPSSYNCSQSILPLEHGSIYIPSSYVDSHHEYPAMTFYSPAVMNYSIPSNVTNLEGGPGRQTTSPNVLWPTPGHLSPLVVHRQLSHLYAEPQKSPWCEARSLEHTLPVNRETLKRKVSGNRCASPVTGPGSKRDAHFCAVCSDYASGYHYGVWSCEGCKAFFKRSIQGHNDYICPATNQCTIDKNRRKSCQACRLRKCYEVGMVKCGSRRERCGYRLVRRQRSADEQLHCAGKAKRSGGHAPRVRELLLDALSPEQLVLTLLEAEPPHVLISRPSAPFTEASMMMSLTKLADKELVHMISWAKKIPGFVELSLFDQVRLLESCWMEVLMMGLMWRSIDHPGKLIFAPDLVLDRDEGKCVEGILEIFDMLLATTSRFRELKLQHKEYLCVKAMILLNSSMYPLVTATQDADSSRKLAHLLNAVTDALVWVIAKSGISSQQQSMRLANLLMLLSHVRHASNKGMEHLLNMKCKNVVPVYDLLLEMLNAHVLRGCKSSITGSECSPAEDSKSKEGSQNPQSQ

Structure (SMILES): CNCCOc1ccc(C(=O)O[C@@H]2/C=C/C(=O)O[C@@H](O)CCC/C=C/[C@@H]3C[C@H](O)C[C@H]32)cc1C(C)=O [Compound 3DPQ-1, (1R,2E,6R,10E,11aS,13S,14aR)-6,13-dihydroxy-4-oxo-4,6,7,8,9,11a,12,13,14,14a-decahydro-1H-cyclopenta[f][1]oxacyclotridecin-1-yl 3-acetyl-4-(2-(methylamino)ethoxy)benzoate]
- fraction unbound at 5 mg/kg bwt [1]: 0.0133
- fraction unbound at 50 mg/kg bwt [1]: 0.0122
- p53 promoter activity, fold higher than the one provoked by Ral ([2]; higher concentration (1 nM)): 0.66 fold
- p53 promoter activity, fold higher than the one provoked by Ral ([2]; lower concentration (0.1 nM)): 0.733 fold
- Cell Cycle (%) G0/G1 (MCF-7 cells; 0.1 nM): 72.62 ± 2.47 *^,†,‡,§ %
- Cell Cycle (%) G2/M (MCF-7 cells; 0.1 nM): 17.40 ± 3.63 *^,†,‡,§ %
- Cell Cycle (%) S (MCF-7 cells; 0.1 nM): 9.98 ± 1.65 *^,†,‡,§ %
- Cell Cycle (%) G0/G1 (MCF-7 cells; 1 nM): 75.08 ± 2.13 *^,†,‡,§ %
- Cell Cycle (%) G2/M (MCF-7 cells; 1 nM): 14.24 ± 2.54 *^,†,‡,§ %
- Cell Cycle (%) S (MCF-7 cells; 1 nM): 10.69 ± 1.42 *^,†,‡,§ %
- IC50 (ERα [3]): > 100 nM
- BIO ([4]; oral 5 mg/kg): 91
- BIO ([4]; oral 50 mg/kg): 94
- IC50 [5]: > 100 nM
- Ki (ERβ): 41.8 nM
- IC50 (ERβ): 74.33 ± 0.46 nM
- logRBA ERβ (ERβ): 0.08 ^†,‡,§
- IC50 (MDA-MB-231 cell lines): 72.44 ± 0.32 nM
- logD at 30 min [6]: 1.94
- IC50 (MCF-7 cell lines): 0.76 ± 0.24 nM
- MCF-7 antiproliferative potency, fold higher than Ral (MCF-7 cell lines): 1.17 fold
- SI (MCF-7 cell lines): 95.31 ^‡,§
- Tumor Burden (week) ([7]; dose 5 mg/kg per os after MNU): 3.38 ± 0.31 ^i,*^,†,‖ week
- Tumor Latency (week) ([7]; dose 5 mg/kg per os after MNU): 9 * week
- Tumor Volume (mm^3) ([7]; dose 5 mg/kg per os after MNU): 1.09 ± 0.23 *^,†,‡,‖ mm^3
- Tumor Burden (week) [7, 11]: 2.04 ± 0.35 *^,†,§,┴ week
- Tumor Latency (week) [7, 11]: 12 *^,† week
- Tumor Volume (mm^3) [7, 11]: 0.68 ± 0.35 *^,†,§,┴ mm^3
- WL after MFD (day 1, mg) [8]: 310.34 ± 0.34 ^i mg
- CAT ([9]; dose 5 mg/kg): 16.21±0.77
- CAT ([9]; dose 50 mg/kg): 17.35±0.56
- TBARS ([9]; dose 5 mg/kg): 0.96 nmol/mg
- TBARS ([9]; dose 50 mg/kg): 0.65 nmol/mg
- GSH ([9]; dose 50 mg/kg): 9.35 ± 0.45 mg/g
- SOD (U/mg) ([9]; dose 5 mg/kg): 7.65±0.63 U/mg
- SOD (U/mg) ([9]; dose 50 mg/kg): 8.83±0.51 U/mg
- TP ([9]; dose 50 mg/kg): 37.21 g/L
- Ki (ERα [10]): 0.13 nM
- IC50 (ERα [10]): 0.57 ± 0.54 nM
- logRBA ERα (ERα [10]): 2.19 ^‡,§
- ERα potency, fold higher than Ral (ERα [10]): 1.30 fold

Structure (SMILES): CC(=O)c1cc(C(=O)O[C@@H]2/C=C/C(=O)O[C@@H](O)CCC/C=C/[C@@H]3C[C@H](O)C[C@H]32)ccc1OCCN(C)C [Compound 3DPQ-2, (1R,2E,6R,10E,11aS,13S,14aR)-6,13-dihydroxy-4-oxo-4,6,7,8,9,11a,12,13,14,14a-decahydro-1H-cyclopenta[f][1]oxacyclotridecin-1-yl 3-acetyl-4-(2-(dimethylamino)ethoxy)benzoate]
- fraction unbound at 5 mg/kg bwt [1]: 0.0115
- fraction unbound at 50 mg/kg bwt [1]: 0.0124
- p53 promoter activity, fold higher than the one provoked by Ral ([2]; higher concentration (1 nM)): 0.66 fold
- p53 promoter activity, fold higher than the one provoked by Ral ([2]; lower concentration (0.1 nM)): 0.733 fold
- Cell Cycle (%) G0/G1 (MCF-7 cells; 0.1 nM): 73.64 ± 5.32 *^,†,‡,§ %
- Cell Cycle (%) G2/M (MCF-7 cells; 0.1 nM): 14.48 ± 2.54 *^,†,‡,§ %
- Cell Cycle (%) S (MCF-7 cells; 0.1 nM): 11.88 ± 0.87 *^,†,‡,§ %
- Cell Cycle (%) G0/G1 (MCF-7 cells; 1 nM): 76.10 ± 1.43 *^,†,‡,§ %
- Cell Cycle (%) G2/M (MCF-7 cells; 1 nM): 11.32 ± 3.25 *^,†,‡,§ %
- Cell Cycle (%) S (MCF-7 cells; 1 nM): 12.59 ± 1.57 *^,†,‡,§ %
- IC50 (ERα [3]): > 100 nM
- BIO ([4]; oral 5 mg/kg): 92
- BIO ([4]; oral 50 mg/kg): 94
- IC50 [5]: > 100 nM
- Ki (ERβ): 43.4 nM
- IC50 (ERβ): 77.24 ± 0.42 nM
- logRBA ERβ (ERβ): 0.06 ^†,‡,§
- IC50 (MDA-MB-231 cell lines): 72.42 ± 0.47 nM
- logD at 30 min [6]: 1.99
- IC50 (MCF-7 cell lines): 0.73 ± 0.42 nM
- MCF-7 antiproliferative potency, fold higher than Ral (MCF-7 cell lines): 1.21 fold
- SI (MCF-7 cell lines): 99.20 ^‡,§
- Tumor Burden (week) ([7]; dose 5 mg/kg per os after MNU): 3.34 ± 0.57 *^,†,‖ week
- Tumor Latency (week) ([7]; dose 5 mg/kg per os after MNU): 9 * week
- Tumor Volume (mm^3) ([7]; dose 5 mg/kg per os after MNU): 0.96 ± 0.41 *^,†,‡,‖ mm^3
- Tumor Burden (week) [7, 11]: 1.98 ± 0.45 *^,†,§,┴ week
- Tumor Latency (week) [7, 11]: 12 *^,† week
- Tumor Volume (mm^3) [7, 11]: 0.69 ± 0.23 *^,†,§,┴ mm^3
- WL after MFD (day 1, mg) [8]: 305.03 ± 0.66 mg
- CAT ([9]; dose 5 mg/kg): 15.54±0.51
- CAT ([9]; dose 50 mg/kg): 17.31±0.63
- TBARS ([9]; dose 5 mg/kg): 0.56 nmol/mg
- TBARS ([9]; dose 50 mg/kg): 0.75 nmol/mg
- GSH ([9]; dose 5 mg/kg): 9.96 mg/g
- GSH ([9]; dose 50 mg/kg): 10.35 mg/g
- SOD (U/mg) ([9]; dose 5 mg/kg): 9.63±0.56 U/mg
- SOD (U/mg) ([9]; dose 50 mg/kg): 12.3±0.36 U/mg
- TP ([9]; dose 50 mg/kg): 41.54 g/L
- Ki (ERα [10]): 0.12 nM
- IC50 (ERα [10]): 0.54 ± 0.31 nM
- logRBA ERα (ERα [10]): 2.22 ^†,‡,§
- ERα potency, fold higher than Ral (ERα [10]): 1.37 fold
